Source: patent publication US20260137652A1, “Composition Comprising Non-Phosphorylated Tryptamine” (SINTALICA S.R.L., priority 2022, published 2026)

Experiments:
MPO = MPO analysis (marker of neutrophil infiltration) after CAR injection; format: in vivo, Sprague-Dawley rats; conditions: rats; for MPO activity: vs CAR group
Description: (§1) The biological effect of the complex, in comparison with the psilocin solution, against inflammation was tested by their administration to 8-12 weeks old male rats.
(§2) A composition comprising complex according to example 1, wherein the ratio of β-carotene to 2-hydroxypropylether β-cyclodextrin was 1:5, was used. Complexes (psilocin, β-carotene, ascorbic acid with ratio 1:1:1 and 2-hydroxypropylether β-cyclodextrin) containing two different concentrations of psilocin have been tested: • a complex containing 3 mg of psilocin, • a complex containing 10 mg of psilocin.
(§3) The study was performed using male Sprague-Dawley rats (200-250 g; Envigo, Milan, Italy). Food and water were accessible ad libitum. Rats were concurrently subjected to a singular subplantar injection of CAR (100 pL of saline solution containing 1% CAR). Paw edema was measured with a plethysmometer (Ugo Basile, Comerio, Varese, Italy) (Salvemini, D.; Wang, Z.-Q.; Wyatt, P. S.; Bourdon, D. M.; Marino, M. H.; Manning, P. T.; Currie, M. G., “Nitric oxide: A key mediator in the early and late phase of carrageenan-induced rat paw inflammation”, Br. J. Pharmacol. 1996, 118, 829-838) prior to CAR injection and every hour for 6 h. Edema was expressed as the increase in paw volume (mL) after CAR injection relative to the pre-injection value for all animals. Scores were expressed as paw volume difference (mL).
The activity of MPO (myeloperoxidase is an enzyme released by neutrophils and used as a marker of neutrophil infiltration) was assessed as previously described (Mullane, K. M.; Kraemer, R.; Smith, B. “Myeloperoxidase activity as a quantitative assessment of neutrophil infiltration into ischemic myocardium.” J. Pharmacol. Methods 1985, 14, 157-167). The rate of change in absorbance was calculated spectrophotometrically at 650 nm. MPO activity was measured in U per gram weight of wet tissue and was quantified as the quantity of enzyme degrading […] of peroxide 1 min at 37° C.
All values are expressed as mean±standard deviation (SD) of N=10 observations. For the in-vivo studies, N represents the number of animals studied. […]

[1] = Stability test of psilocin for 24 hours: darkening and psilocin concentration by UHPLC-MS; format: physicochemical
Description: The inclusion complex obtained by the resuspension of the freeze-dried complex of (β-carotene and 2-hydroxypropylether p-cyclodextrin in the ratio 1:5 with 3 mg of psilocin dissolved in 1 mL of H2O:EtOH (8:2) solution, was tested to evaluate the inclusion complex stability.
The complex stability was evaluated for 24 hours, under different environmental conditions: • Sample A) 22° C. with no light irradiation • Sample B) 30° C. with no light irradiation • Sample C) 22° C. under UV irradiation (using an UVA lamp A=365 nm) • Sample D) Freeze-dried for 30 days • Sample E) 30° C. under UV irradiation (using an UVA lamp A=365 nm)
All the complex stability tests were compared to a “blank” psilocin solution in H2O:EtOH (8:2).
For evaluating psilocin stability chromatographic analyses were performed using a Nexera X2 UHPLC system coupled to a LCMS-8060 mass spectrometer (Shimadzu, Duisburg, Germany). Data acquisition and processing was performed using the LabSolutions software (version 5.95 Shimadzu). The separation of the various tryptamines was achieved by using an Ascentis Express 90 HILIC column (150×2.1 mm, 2.7 pm) (Merck Life Science) and a mobile phase composed of ammonium formate 0.1 M in water as solvent A, and acetonitrile as solvent B. The gradient program was as follows: 0 min, 90% B; 3 min, 75% B; 10 min, 20% B; 13 min 20% B; 15 min 90% B. The flow rate was 0.5 mL min−1; the column oven was set at 40° C. and the injection volume was 1 pL. Mobile phases were filtered through a 0.45 µm membrane.
The synthetic psilocin was weighed in a volumetric flask and diluted with water: ethanol (8:2) at a concentration of 3000 ppm. Then, it was serially diluted to get a final concentration of 0.10 ppm and analyzed according to the above reported method, in order to verify the stability for 24 hours. At time 0, it was 0.11 ppm. After 24 hours the concentration decreased to 0.04 ppm, showing a concentration loss of 60%.

paw tissues = assay: Histology (H&E staining) of paw tissues after CAR injection; format: in vivo, Sprague-Dawley rats; conditions: for inflammatory cell infiltration and edema / histological score (H&E): rat paw tissues 6 h after CAR injection
Description: as §1, §2, §3
Paw tissues were collected 6 h after CAR injection. Samples were fixed in 10% formaldehyde solution in phosphate buffer saline (PBS) at room temperature for 24 h, dehydrated by graded series of ethanol and at the list embedded in Paraplast (Sherwood Medical, Mahwah, NJ, USA). Sections of 7-pm thickness were cut with a microtome, deparaffinized with xylene and stained with hematoxylin and eosin (H&E). All sections were examined using an Axiovision Zeiss (Milan, Italy) microscope by two investigators blinded to the treatment conditions. […]
All values are expressed as mean±standard deviation (SD) of N=10 observations. […] Data were analyzed by one-way ANOVA followed by a Bonferroni post-hoc test for multiple comparisons. […]

mechanical allodynia = assay: Pain behavior: mechanical allodynia, Von Frey test after CAR injection; format: in vivo, Sprague-Dawley rats; conditions: rats, 1-6 hours post CAR injection, as compared to CAR group
[2] = Stability test by NMR spectroscopy; format: physicochemical; conditions: Sample A: 22° C. with no light irradiation
Description: The same specimens were analyzed also by NMR Spectroscopy using Varian 500 MHz spectrometer equipped with a OneNMR probe.
Samples were recorded using a PRESAT pulse sequence suppressing the signal of H2O and EtOH acquiring 128 scans for each spectrum. H2O (4.64 ppm) was used as reference line.
For the NMR analysis, all samples were treated as follow: 530 pL were poured into NMR tube (5 mm i.d.) then coaxial tube was filled with D2O to lock the solvent frequency.

CAR-induced paw edema = assay: CAR-induced paw edema, paw volume by plethysmometer; format: in vivo, Sprague-Dawley rats; conditions: rats, measured every hour for 6 h after CAR, vs CAR group
Description: as §1, §2, §3
All values are expressed as mean±standard deviation (SD) of N=10 observations. For the in-vivo studies, N represents the number of animals studied. Data were analyzed by one-way ANOVA followed by a Bonferroni post-hoc test for multiple comparisons. A p-value less than 0.05 will be considered significant. #p<0.05 vs. CTR, *p<0.05 vs. CAR, ##p<0.01 vs. CTR, **p<0.01 vs. CAR, ###p<0.001 vs. CTR, ***p<0.001 vs. CAR, °p<0.05 vs. 3 m/Kg, § p<0.05 vs. 10 mg/Kg, °°p<0.01 vs. 3 mg/Kg, §§ p<0.01 vs. 10 mg/Kg, 000 p<0.001 vs. 3 mg/Kg, §§§ p<0.001 vs. 10 mg/Kg.

[3] = Sample B: 30° C. with no light irradiation, 24 hours

CN(C)CCc1c[nH]c2cccc(O)c12 [psilocin, 4-hydroxy-N,N-dimethyltryptamine]
MPO activity (MPO; 3 mg/Kg): reduced the MPO activity | MPO activity (MPO; 10 mg/Kg): reduced the MPO activity | MPO activity effect of psilocin as compared to the complex administration (MPO; all doses (3 and 10 mg/Kg)): significant effect | darkening ([1]; Sample A: 22° C. with no light irradiation, 24 h): started the darkening process since the first 2 hours of storing | psilocin concentration after 24 hours ([1]; Sample A: 22° C. with no light irradiation, H2O:EtOH (8:2), after 24 hours): 0.04 ppm | psilocin concentration at time 0 ([1]; Sample A: 22° C. with no light irradiation, H2O:EtOH (8:2), time 0): 0.11 ppm | loss of psilocin concentration ([1]; Sample A: 22° C. with no light irradiation, after 24 hours): 60% | psilocin concentration trend ([1]; Sample A: 22° C. with no light irradiation, time 0 vs after 24 hours): decreased | darkening [1, 3]: darkening process was observed | psilocin concentration trend [1, 3]: decreased during 24 hours | darkening ([1]; Sample C: 22° C. under UV irradiation (365 nm), 24 h): started the darkening process since the first 2 hours of storing | psilocin concentration trend ([1]; Sample C: 22° C. under UV irradiation (365 nm), 24 hours): decreasing during 24 hours | darkening ([1]; Sample D: freeze-dried, redissolved 30 days after freeze-drying, ambient temperature, 24 h): started the darkening process since the first 2 hours of storing | darkening ([1]; Sample E: 30° C. under UV irradiation (365 nm), 24 h): Darkening was observed | psilocin concentration trend ([1]; Sample E: 30° C. under UV irradiation (365 nm), 24 hours): decreased during 24 hours | inflammatory cell infiltration and edema / histological score (H&E) (paw tissues; 3 mg/Kg): meaningfully decreased | inflammatory cell infiltration and edema / histological score (H&E) (paw tissues; 10 mg/Kg): meaningfully decreased | histological anti-inflammatory effect of psilocin as compared to the complex administration (paw tissues; all doses (3 and 10 mg/Kg), rats): better anti-inflammatory effect | paw-withdrawal threshold (Von Frey) (mechanical allodynia; 3 mg/Kg): significantly increased | paw-withdrawal threshold (Von Frey) (mechanical allodynia; 10 mg/Kg): significantly increased | degradation product by NMR compared with the other solutions [2]: less degradation product | CAR-induced paw edema (paw volume) (CAR-induced paw edema; 3 mg/Kg): reduction of paw volume | CAR-induced paw edema (paw volume) (CAR-induced paw edema; 3 mg/Kg, listed as Psilocin): significantly reduced | CAR-induced paw edema (paw volume) (CAR-induced paw edema; 10 mg/Kg): reduction of paw volume | CAR-induced paw edema (paw volume) (CAR-induced paw edema; 10 mg/Kg, listed as Psilocin): significantly reduced
